# Experiments:
# Assay type in all cases: cell-based, Saccharomyces
# [1] = system: active dry yeast Uvaferm CEG; assay: Duration of fermentation of deficient synthetic must MS70-fa with different added nutrients (Example 3); details: average of duplicates, control without addition 290
# Procedure: 12 fermentations were carried out in parallel and in duplicate on a synthetic must MS70-fa such as described in example 1, and corresponding to a medium deficient in assimilable nitrogen (100 mg/l) and containing 200 g/l of fermentable sugars. The active dry yeast used is the commercial yeast Uvaferm CEG™ inoculated at a dosage of 20 g/hl. The yeast extract is the commercial extract Bacto-yeast extract ref. 0127-01-7 (DIFCO, USA). The vitamins and mineral salts are the standard products available from suppliers.
# F1 and 2: Controls in which no yeast extract is added either into the rehydration medium of the yeast or into the fermentation medium. The control rehydration medium is the base medium: water with glucose added at 50 g/l.
# F3: Fermentation carried out with the yeast CEG™ rehydrated in the presence of yeast extract (used at a dosage permitting a concentration of 30 g/hl in the must) in the rehydration medium.
# F4: Fermentation carried out with the yeast CEG™ rehydrated in a control rehydration medium. The same yeast extract as for F3 is added at the start of alcoholic fermentation directly into the synthetic must MS70-fa in a dosage of 30 g/hl.
# F6: Fermentation carried out with the yeast CEG™ rehydrated in a control rehydration medium. […]
# [2] = system: active dry yeast Uvaferm CEG; assay: Industrial fermentation of Airen white wine must in 100 hectolitre vats (Example 7)
# Procedure: (§1) The medium M2 containing the composition C2 has been used to rehydrate the ADYs and culture a fermentation must of a white wine in industrial conditions in a cellar in the region of la Mancha in Spain.
# (§2) Assimilable Nitrogen in the must: 225 mg/l (non-Deficient must)
# (§3) Fermentations have been carried out in 100 hectolitre vats according to different forms, in order to determine the most favourable conditions. Two types of ADY have been used, on their own or in the presence of other substances jointly added to the musts to encourage fermentation. In particular the influence of diammonium phosphate and a fermentation activator, added to the fermentation medium, has been studied.
# (§4) The active dry yeasts Uvaferm™ CEG (Lallemand, Canada) and Uvaferm™ PM (Lallemand, Canada) have been rehydrated with the aid of the medium M2 described in example 6. For each of the two yeasts, 4 tests have been carried out, by adding:
# (§5) The fermentation activator used is the activator Fermaid™ (Lallemand, Canada).
# (§6) The kinetic profile of these eight fermentations was followed by measuring the density of the must and at the level of the production of a secondary component of fermentation, i.e. acetate. Indeed, acetate is responsible for the volatile acidity of wines which should be minimised in order to obtain good gustative qualities.
# (§7) The values presented in table 2 correspond to fermentation times in days for each form.
# (§8) The values presented in table 3 correspond to the volatile acidity measured at the end of fermentation by the Duclaux-Gayon method, known to the person skilled in the art.
# [3] = system: active dry yeast Uvaferm PM; assay: as above
# Procedure: as §1, §2, §3, §4, §5, §6, §7, §8
# [4] = Airen must, 225 mg/l assimilable nitrogen
# [5] = at end of fermentation, Duclaux-Gayon method
Compound,"fermentation time, in rehydration medium ([1]; product added in rehydration medium)","fermentation time, at start of fermentation ([1]; product added to must at start of fermentation)","fermentation time [2, 4]","Volatile acidity [2, 5]","fermentation time [3, 4]","Volatile acidity [3, 5]"
N.N.O=P(O)(O)O [Di-ammonia phosphate],280 h,285 h,–,–,–,–
N.N.O=P(O)(O)O [Test no. 1],–,–,10 days,0.48 g/L,8 days,0.33 g/L

# From US20040213889A1, “Method for active dry yeast rehydration and rehydration medium” (priority 2001, published 2004)
